What all share (format): in vivo, rat
Assay [1] relates to middle cerebral arteries (MCA). The assay can be described thus: Pressurized arteriograph: vascular reactivity and structure of MCA from relaxin-treated NP Sprague Dawley rats. As to conditions: relaxin- vs vehicle-treated NP rats. From the text: Animals and Treatment Groups: All procedures were approved by the Institutional Animal Care and Use Committee and conducted in accordance with the National Institutes of Health Guide for the Care and Use of Laboratory Animals. Female virgin NP Sprague Dawley rats (250-300 g, 14-16 weeks, Charles River, Canada) were used for all experiments and housed in the University of Vermont Animal Care Facility. Animals were randomly selected and grouped as untreated (N=4), treated with recombinant human relaxin-2 (relaxin, 4 μg/hr; N=14), relaxin plus a specific PPARγ inhibitor GW9662 (10 mg/kg daily in food; N=8), or vehicle (20 mM sodium acetate; N=14) for 10 days through osmotic minipumps (Alzet 2ML2, Durect Corp., Cupertino, Calif., USA). GW9662 treatment was started 1 day before and for the duration of relaxin treatment to ensure PPARγ was inhibited. Animals were anesthetized with 3% isoflurane and minipumps implanted subcutaneously in the back of the neck. All animals received post-surgical analgesic (buprenorphine, 50 μg/kg, s.c.). […]
Vessel Preparation and Pressurized Arteriograph System: After collecting trunk blood, the brain was quickly removed and placed in cold physiological salt solution (PSS). […] Temperature and pH were continuously measured and maintained at 37.0±0.5° C. and 7.40±0.05, respectively. […]
Vascular Reactivity and Structural Characteristics in PA and MCA: For the first set of experiments, PA and MCA were equilibrated for 1 hour at 25 mmHg, after which myogenic activity was determined by stepwise increases in pressure from 40 to 100 mmHg for PA or 50 to 175 mmHg for MCA. ID and WT were measured at each pressure once stable. Changes in ID and WT were measured in PA only in response to small- (SKCa) and intermediate- (IKCa) conductance calcium-activated potassium channels blockers, apamin (3×10^−7 M) and TRAM-34 (10^−6 M), respectively. […] We therefore assessed the effect of relaxin on constriction of PA in response to SKCa/IKCa channel inhibition in order to assess this unique pathway. […]

Assay [2] can be described thus: Conscious blood pressure, non-invasive tail-cuff method, SHR. The settings on record: SHR-F, relaxin 4 μg/hr 14 days. On the procedure: Systemic blood pressures were determined in all groups of animals using a non-invasive tail-cuff method (Chan, S. L., and Cipolla, M. J. (2011) Relaxin causes selective outward remodeling of brain parenchymal arterioles via activation of peroxisome proliferator-activated receptor-gamma. FASEB J 25, 3229-3239). For untreated WKY-F and SHR-F groups, blood pressures were measured on the day the animals were euthanized. For relaxin treated groups, blood pressures were measured on day 0 (baseline, before pump implant), 2, 7 and 14. All animals were trained for 3 days before actual blood pressure measurements were taken.

A further assay has as its system MMP-2. The assay can be described thus: MMP-2 mRNA expression (qPCR) in brain cortex and PA, SHR. As to conditions: relaxin-treated SHR. On the procedure:
After dissecting PA and MCA for isolated vessel experiments, the remaining MCA, PA, and brain cortex from the MCA territory of 4-6 rats were collected and stored at −80° C. in RNase inhibitor (1 unit/μl, RiboLock, Fermentas, Glen Burnie, Md., USA) to determine mRNA expression levels of target genes using real-time qPCR methods. Target genes were assessed using Assays on Demand from Applied Biosystems. […] All primers were designed across an exon-exon junction to avoid detecting genomic DNA, so no DNase treatment was required. Housekeeping gene β-actin was used in all qPCR experiments as a control. […]
To investigate the mechanisms by which relaxin causes selectively remodeling of PA, mRNA expression of VEGF, MMP-2, and MMP-9 were compared between MCA, PA, brain cortex. To determine if relaxin activates peroxisome proliferator-activated receptor-gamma (PPARγ), expression levels of PPARγ target genes fatty acid binding protein-4 (FABP4) and plasminogen activator inhibitor-1 (PAI-1) were determined in mesenteric adipose tissue. Expression levels of PPARγ and its target genes PAI-1 and liver X receptors-α (LXR-α) were also determined in brain cortex (Chan, S. L., and Cipolla, M. J. (2012) Determination of PPARgamma activity in adipose tissue and spleen. J Immunoassay Immunochem 33, 314-324).
(Quantitative PCR measures a nucleic acid by following its amplification.)

On to relaxin, for which, in assay [1], the “Structure of MCA” value was “no effect” and the “Tone of MCA” value is “did not significantly affect”. The “Active diameters of MCA” value in assay [1] (any pressure) is recorded as “no effect”. Further, the Blood pressure entry in assay [2] was “did not cause a lowering of blood pressure”. For the same substance, in assay [2] (listed as Relaxin), the Blood pressure entry is recorded as “did not affect”. Also, in the assay with MMP-2, the “MMP-2 expression in brain cortex” value is “increased”.

Source of the values: patent publication US9393288B2, “Methods of treating diseases associated with PPARγ” (The University of Vermont and State Agricultural College, priority 2012, dated 2016).
